Assay [1] concerns the target T1, human phospholipase A2, content of tears (P14555) (Homo sapiens, UniProt P14555).
T1 construct: Reaction mixture contained 2 nM of phospholipase of human tears; from tissue; host or cells: human tear fluid
T1 sequence (P14555 21-144): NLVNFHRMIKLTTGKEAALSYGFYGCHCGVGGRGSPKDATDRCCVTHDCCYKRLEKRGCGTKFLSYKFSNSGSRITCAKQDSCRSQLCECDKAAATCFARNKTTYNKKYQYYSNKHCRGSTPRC
Description: Activity of human tear phospholipase A2 towards C28-O-PHPM in the presence of peptide (pyrene monomer fluorescence). It is filed as biochemical. Particulars: 2 nM enzyme, 40 nM or 80 nM peptide; FIG. 2. How it is done: Activity of secretory phospholipase A2 (Apis mellifica) of class III towards C28—O—PHPM was measured in the presence of peptide KMYFNLI (SEQ ID NO:1). Reaction mixture contained 2 nM of phospholipase A2, 2 nM or 4 nM of the peptide and 1.25 μM C28—O—PHPM (1-octacosanyl-2-(6-pyren-1-yl)hexanoyl-sn-glycero-3-phosphatidylmethanol) in 2.0 ml of 5 mM HEPES, 0.1 mM EDTA, 1 mM CaCl2, pH 7.4 at 37° C. with stirring. The assay was performed with or without preincubation step. The enzymatic reaction was followed by measuring the pyrene monomer fluorescence intensity at 400 nm using a spectrofluorometer. Excitation wavelength was 343 nm and the excitation and emission slits were 10 nm.
Activity of human phospholipase A2, content of tears (P14555), was measured in the presence of peptide AALSYGFYG (SEQ ID NO:68). Reaction mixture contained 2 nM of phospholipase of human tears, 40 nM or 80 nM of the peptide and 1.25 μM C28—O—PHPM (1-octacosanyl-2-(6-pyren-1-yl)hexanoyl-sn-glycero-3-phosphatidylmethanol) in 2.0 ml of 5 mM HEPES, 0.1 mM EDTA, 1 mM CaCl2, pH 7.4 at 37° C. with stirring. The assay was performed with or without preincubation step. The enzymatic reaction was followed as described in Example 2.

Assay [2] concerns the target secretory phospholipase A2 (Apis mellifica) of class III (Apis mellifera, UniProt P00630).

Where no end group is shown, it is not given here.

Sequence of secretory phospholipase A2 (Apis mellifica) of class III (P00630 34-167 limits assumed): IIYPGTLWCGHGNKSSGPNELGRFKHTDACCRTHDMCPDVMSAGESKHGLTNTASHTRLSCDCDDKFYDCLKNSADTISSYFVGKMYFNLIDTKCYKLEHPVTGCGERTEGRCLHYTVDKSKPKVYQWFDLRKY

Regarding “AALSYGFYG (not fully specified (C-terminus); listed as Homo sapiens) [synthetic peptide corresponding to residues 17-25 of human secretory PLA2 present in tear fluid]”, in assay [1], the “inhibition of tear fluid PLA2 activity” value is on record as “inhibited”.

KMYFNLI: in assay [2], the “inhibition of bee venom PLA2 enzyme” value is recorded as “complete inhibition” and the “peptide concentration at which inhibition was observed” value came to 2 nM.

Source of the values: patent US20130079493A1, “Method for prepairing peptide inhibitors of a lipid-activated enzyme and peptides produced by same” (ESTAJA OY, priority 2010, published 2013).
